For data set [1], the system named is MV4-11. As to the kind of experiment: Antiproliferative activity against human MV4-11 cells harboring FLT3-ITD mutant assessed as cell growth inhibition measured after 72 hrs by CCK8 assay. Particulars: MV4-11, 72 h. (Tetrazolium assays rely on reduction of a dye to a coloured formazan, in cell work by metabolically active cells.)
Data set [2] can be described thus: Cytotoxicity against human K562 cells assessed as cell growth inhibition measured after 72 hrs by CCK8 assay. It is filed as toxicity, cell-based.
Another data set has as its system MOLM-13. As to the kind of experiment: Antiproliferative activity against human MOLM-13 cells harboring FLT3-ITD mutant assessed as cell growth inhibition measured after 72 hrs by CCK8 assay. Conditions: MOLM-13, 72 h.
The subject of the next data set is HL-60. Put plainly: Antiproliferative activity against human HL-60 cells harboring wildtype FLT3 assessed as cell growth inhibition measured after 72 hrs by CCK8 assay. Particulars: HL-60, 72 h.
For another data set, the system named is HepG2. As to the kind of experiment: Antiproliferative activity human HepG2 cells assessed as cell growth inhibition measured after 72 hrs by CCK8 assay. Conditions: HepG2, 72 h.
The nature of data set [3]: Cytotoxicity against HUVEC cells assessed as cell growth inhibition measured after 72 hrs by CCK8 assay. In kind it is toxicity, cell-based. Particulars: human.
In another data set the test system is A549. As to the kind of experiment: Antiproliferative activity human A549 cells assessed as cell growth inhibition measured after 72 hrs by CCK8 assay. Conditions: A549, 72 h.
Data set [4] has as its system MV4-11. As to the kind of experiment: Induction of apoptosis in human MV4-11 cells assessed as early apoptotic cells at 0.1 uM measured after 48 hrs by Annexin V-FITC/PI double staining based flow cytometric analysis (reference value: 2.04 %). It is filed as functional. In general terms: Flow cytometry measures light scatter and fluorescence of single cells or particles in a stream.

The test system of data set [5] is MV4-11. As to the kind of experiment: Induction of apoptosis in human MV4-11 cells assessed as late apoptotic cells at 0.1 uM measured after 48 hrs by Annexin V-FITC/PI double staining based flow cytometric analysis (reference value: 12.03 %). It is filed as functional.
Data set [6] has as its system MV4-11. As to the kind of experiment: Induction of apoptosis in human MV4-11 cells assessed as necrotic cells at 0.1 uM measured after 48 hrs by Annexin V-FITC/PI double staining based flow cytometric analysis (reference value: 5.67 %). In kind it is functional.
Data set [7] deals with MV4-11. Put plainly: Induction of apoptosis in human MV4-11 cells assessed as viable cells at 0.1 uM measured after 48 hrs by Annexin V-FITC/PI double staining based flow cytometric analysis (reference value: 80.26 %). In kind it is functional. Particulars: read-out: Activity.

Experimental findings from ChEMBL document CHEMBL5113503, “Synthesis and biological evaluation of 4-(4-aminophenyl)-6-methylisoxazolo[3,4-b] pyridin-3-amine covalent inhibitors as potential agents for the treatment of acute myeloid leukemia” (Bioorg Med Chem, 2022) are described below.

As to `C=CC(=O)Nc1ccc(C(=O)Nc2ccc(-c3cc(C)nc4noc(N)c34)cc2)cc1Br`, the IC50 with MV4-11 [1] is 1.22 µM; with MOLM-13, 7.35 µM; in the data set with HL-60 it was 0.601 µM; in the data set on HepG2 it was 2.68 µM; in the data set on A549, greater than 10 µM. In addition, the IC50 at 72 h in [2] and in data set [3] was greater than 10 µM in each case.

Turning to `C=CC(=O)Nc1ccc(C(=O)Nc2ccc(-c3cc(C)nc4noc(N)c34)cc2)cc1C`, the IC50 is 3.33 µM with MV4-11 [1]; greater than 10 µM with MOLM-13; 0.448 µM with HL-60; 2.27 µM with HepG2; greater than 10 µM with A549. In addition, the IC50 at 72 h in data set [2] was found to be 2.77 µM; in [3], 3.23 µM.

For the molecule `C=CC(=O)N1CCC(C(=O)Nc2ccc(-c3cc(C)nc4noc(N)c34)cc2)CC1`, the IC50 with MV4-11 [1], with MOLM-13, in the data set on HL-60, with HepG2 and in the data set with A549 was greater than 10 µM throughout. Besides, the IC50 at 72 h in data set [2] and in [3] was greater than 10 µM throughout.

`C=CC(=O)Nc1ccc(C(=O)Nc2ccc(-c3cc(C)nc4noc(N)c34)cc2)cc1F`: the half-inhibitory concentration (IC50) in the data set with MV4-11 [1], with MOLM-13, in the data set on HL-60, in the data set with HepG2 and in the data set with A549 was greater than 10 µM in each case. Moreover, the IC50 at 72 h in data set [2] and in data set [3] was greater than 10 µM each time.

Turning to `C=CC(=O)Nc1ccc(C(=O)Nc2ccc(-c3cc(C)nc4noc(N)c34)cc2)cc1OC`, the IC50 is 4.79 µM in the data set on MV4-11 [1]; greater than 10 µM in the data set on MOLM-13; greater than 10 µM in the data set with HL-60; greater than 10 µM in the data set on HepG2; greater than 10 µM in the data set with A549. Also, the IC50 at 72 h in data set [2] and in data set [3] was greater than 10 µM throughout.

On to `C=CC(=O)Nc1ccc(C(=O)Nc2ccc(-c3cc(C)nc4noc(N)c34)cc2)cc1Cl`, for which the IC50 turned out to be 0.675 µM with MV4-11 [1]; 3.76 µM in the data set with MOLM-13; 0.307 µM in the data set with HL-60; 2.61 µM in the data set with HepG2; 5.54 µM in the data set on A549. Moreover, the IC50 at 72 h came out at 7.52 µM in data set [2] and 2.65 µM in data set [3].

`C=CS(=O)(=O)Nc1ccc(C(=O)Nc2ccc(-c3cc(C)nc4noc(N)c34)cc2)cc1`: the IC50 is 2.55 µM in the data set on MV4-11 [1]; greater than 10 µM in the data set on MOLM-13; greater than 10 µM in the data set on HL-60; greater than 10 µM in the data set on HepG2; greater than 10 µM in the data set on A549. Also, the IC50 at 72 h in data set [2] and in data set [3] was greater than 10 µM throughout.

On to `C=CC(=O)Nc1ccc(CCC(=O)Nc2ccc(-c3cc(C)nc4noc(N)c34)cc2)cc1`, for which the IC50 in the data set with MV4-11 [1] was 1.34 µM; with MOLM-13, 7.42 µM; in the data set with HL-60 it was greater than 10 µM; with HepG2, greater than 10 µM; with A549 it was greater than 10 µM. Moreover, the IC50 at 72 h in [2] and in data set [3] was greater than 10 µM each time.

For the molecule `C=CC(=O)Nc1ccc(C(=O)Nc2ccc(-c3cc(C)nc4noc(N)c34)cc2)c(C(F)(F)F)c1`, the IC50 is 9.18 µM with MV4-11 [1]; 6.9 µM in the data set with MOLM-13; 3.68 µM in the data set on HL-60; greater than 10 µM with HepG2; greater than 10 µM with A549. In addition, the IC50 at 72 h in data set [2] and in [3] was greater than 10 µM in each case.

On to `C=CC(=O)Nc1cccc(CC(=O)Nc2ccc(-c3cc(C)nc4noc(N)c34)cc2)c1`, for which the IC50 in the data set on MV4-11 [1] was 1.26 µM; with MOLM-13, 2.52 µM; in the data set with HL-60 it was 7.39 µM; in the data set with HepG2, greater than 10 µM; in the data set with A549, greater than 10 µM. Also, the IC50 at 72 h in [2] and in data set [3] was greater than 10 µM throughout.

In the case of `C=CC(=O)Nc1ccc(C(=O)Nc2ccc(-c3cc(C)nc4noc(N)c34)cc2)cc1`, the IC50 with MV4-11 [1] is 1.59 µM; with MOLM-13, 4.78 µM; with HL-60, 4.4 µM; in the data set on HepG2 it was greater than 10 µM; with A549, greater than 10 µM. In addition, the IC50 at 72 h in data set [2] and in data set [3] was greater than 10 µM throughout.

Consider `Cc1cc(-c2ccc(NC(=O)Nc3ccc(Cl)c(C(F)(F)F)c3)cc2)c2c(N)onc2n1`, for which the concentration for half-maximal inhibition (IC50) was 0.00089 µM with MV4-11 [1]; 0.0046 µM in the data set with MOLM-13; greater than 10 µM in the data set on HL-60; greater than 10 µM in the data set with HepG2; 7.31 µM in the data set with A549. The IC50 at 72 h in data set [2] was 1.73 µM; in [3], greater than 10 µM.

Turning to `Cc1ccc(F)c(NC(=O)Nc2ccc(-c3cccc4[nH]nc(N)c34)cc2)c1` [LINIFANIB], the IC50 in the data set with MV4-11 [1] was 0.0034 µM; with MOLM-13 it was 0.019 µM; in the data set with HL-60, 7.88 µM; in the data set on HepG2, 4 µM; in the data set with A549, 8.34 µM. Further, the figures for the IC50 at 72 h in data set [2] and in data set [3] were 6.96 µM and 4.92 µM, respectively. Also, the Activity in the data set on MV4-11 [4] came out at 0.55%; in the data set on MV4-11 [5], 50.7%; in the data set with MV4-11 [6] it was 15.38%. Further, the viability at 0.1 µM in the data set on MV4-11 [7] came out at 33.4%.

As to `C=CC(=O)Nc1ccc(CC(=O)Nc2ccc(-c3cc(C)nc4noc(N)c34)cc2)cc1`, the IC50 is 2.17 µM with MV4-11 [1]; 6.23 µM in the data set with MOLM-13; 8.53 µM with HL-60; greater than 10 µM in the data set on HepG2; greater than 10 µM in the data set on A549. Besides, the IC50 at 72 h in [2] and in data set [3] was greater than 10 µM in each case.

On to `C=CC(=O)Nc1cccc(C(=O)Nc2ccc(-c3cc(C)nc4noc(N)c34)cc2)c1`, for which the IC50 in the data set with MV4-11 [1] is 0.348 µM; in the data set with MOLM-13, 0.703 µM; with HL-60 it was 3.95 µM; in the data set with HepG2 it was 7.62 µM; with A549, greater than 10 µM. In addition, the IC50 at 72 h in data set [2] and in data set [3] was greater than 10 µM in each case.

For the molecule `C=CC(=O)Nc1cccc(NC(=O)Nc2ccc(-c3cc(C)nc4noc(N)c34)cc2)c1`, the IC50 is 1.04 µM in the data set with MV4-11 [1]; 2.27 µM with MOLM-13; greater than 10 µM with HL-60; greater than 10 µM with HepG2; greater than 10 µM with A549. Moreover, the IC50 at 72 h in data set [2] and in data set [3] was greater than 10 µM throughout.

The term IC50 denotes the midpoint of a concentration-inhibition curve.
